In patent publication US5364777A, “Method of improving lipase activity using noble gases” (American Air Liquide, priority 1992, dated 1994):

Assays:
[1] = tested on: triacylglycerol lipase EC 3.1.1.3; experiment: Lipase hydrolysis of p-nitrophenyl acetate under gaseous atmospheres (spectrophotometric, 400 nm); assay type: biochemical, Rhizonus arrhizus; details: substrate PNP-Acetate, +25° C.
Procedure: FIGS. 1-3 show a typical enzyme assay carried out at 10, 25 and 35 degrees °C. for triacylglycerol lipase catalysts of paranitrophenol acetate hydrolysis.
(§1) Lipase catalysis of lipid conversion was tested using triglycerides, paranitrophenyl (PNP) acetate, PNP-butyrate, PNP-caprate, PNP-caprylate, PNP-caproate, olive oil, standard lipids and triglycerides, and other lipids. […]
(§2) Testing Of An Adequate Procedure
(§3) To Follow Lipase L-1754/p-Nitrophenyl
Effect of Air, Ne, Ar, Kr, Xe, N2 and O2 on
Lipase L-1754 using p-nitrophenyl acetate
ENZYME: Lipase (Sigma No. L-4384)
Type XI from Rhizonus arrhizus
p-Nitrophenyl acetate (Sigma No. N-8130)
8 DIFFERENT GASEOUS ATMOSPHERES:
3 DIFFERENT TEMPERATURES:
R = 2.0 ml Soln D + 0.5 ml Soln A
fill the cuvettes with 2.0 ml of (p-nitrophenyl
Fill 8 serum vials with 5.0 ml of (lipase
Bubble 10x10cc of the appropriate gas in T1G1 ... 5
Bubble 10xl0cc of the appropriate gas in G1 ... 5
Remove G1 ... 5 serum vials from fridge. Sample soln

[2] = tested on: triacylglycerol lipase EC 3.1.1.3; experiment: Lipase L-1754 hydrolysis of p-nitrophenyl caprate, butyrate, caproate under gaseous atmospheres (400 nm); assay type: biochemical, Candida cylindracea; details: for Maximum inhibition of lipase activity, PNP-Butyrate: substrate PNP-Butyrate, 10° C.; for Maximum enhancement of lipase activity, PNP-Caproate: substrate PNP-Caproate
Procedure: FIGS. 4-6 show a typical and similar enzyme assay carried out on the same enzyme using PNP-butyrate showing inhibition of activity at 10° C. 25° C. and 35° C., respectively. Significant depression in rate is noted.
as §1, §2, §3
caprate N-0252, p-Nitrophenyl butyrate N-9876, p-Nitrophenyl
caproate N-0502, p-Nitrophenyl caprylate N-0752
PURPOSE: Testing protocol to follow Lipase L-17,54 using p-
ENZYME: Lipase (Sigma No. L-1754)
Type VII from Candida cylindracea w/ 30% lactose
p-Nitrophenyl caprate (Sigma No. N-02521)
p-Nitrophenyl butyrate (Sigma No. N-9876)
p-Nitrophenyl caproate (Sigma No. N-0502)
Results: We will do gas runs using p-nitrophenyl caproate and
p-nitrophenyl caprate as substrates. These will be compared to
p-nitrophenyl caproate N-0502
p-nitrophenyl caprate N-0252

SMILES | Maximum enhancement of lipase activity, PNP-Acetate [1] | Maximum inhibition of lipase activity, PNP-Butyrate [2] | Maximum enhancement of lipase activity, PNP-Caproate ([2]; +35 degrees) | Maximum enhancement of lipase activity, PNP-Caprate ([2]; substrate PNP-Caprate, 35° C.) | Maximum enhancement of lipase activity, PNP-Caproate ([2]; 25° C.)
[Kr] [Kr, krypton] | +11% | -25% |  |  | 
[Xe] [Xe, xenon] |  | 26% | +23% |  | 
[Ar] [Ar, argon] |  |  |  | +14% | +37%
